ChEMBL document CHEMBL1201861, “Genomics of Drug Sensitity in Cancer screening data, Wellcome Trust Sanger Institute”

Assays:
[1] = tested on: SK-LU-1; assay: cells; type: functional, cell-based; settings: Homo sapiens;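 further: cell viability assay measuring growth inhibition of human SK-LU-1 cells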
Description: SANGER: Inhibition of human SK-LU-1 cell growth in a cell viability assay.

[2] = tested on: K052; assay: cells; type: functional, cell-based; settings: Homo sapiens;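 further: Read-out from a cell viability assay, IC50 reflecting suppression of K052 cell growth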
Description: SANGER: Inhibition of human K052 cell growth in a cell viability assay.

[3] = tested on: CAL-62; assay: cells; type: functional, cell-based; settings: Homo sapiens;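 further: growth inhibition of CAL-62 cells, read out with a cell viability assay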
Description: SANGER: Inhibition of human CAL-62 cell growth in a cell viability assay.

[4] = tested on: T47D; assay: cells; type: functional, cell-based; settings: Homo sapiens;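 further: growth inhibition of human T47D cells, measured with a cell viability assay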
Description: SANGER: Inhibition of human T47D cell growth in a cell viability assay.

[5] = tested on: IMR-5; assay: cells; type: functional, cell-based; settings: Homo sapiens;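 further: growth inhibition of human IMR-5 cells, read out with a cell viability assay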
Description: SANGER: Inhibition of human IMR-5 cell growth in a cell viability assay.

[6] = tested on: BXPC-3; assay: cells; type: functional, cell-based; settings: Homo sapiens;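 further: growth inhibition of human BxPC-3 cells, read out by a cell viability assay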
Description: SANGER: Inhibition of human BxPC-3 cell growth in a cell viability assay.

[7] = tested on: RL; assay: cells; type: functional, cell-based; settings: Homo sapiens
Description: SANGER: Inhibition of human RL cell growth in a cell viability assay.

[8] = tested on: UACC-62; assay: cells; type: functional, cell-based; settings: Homo sapiens;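 further: growth inhibition of human UACC-62 cells, read out by a cell viability assay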
Description: SANGER: Inhibition of human UACC-62 cell growth in a cell viability assay.

[9] = tested on: HCT-15; assay: cells; type: functional, cell-based; settings: Homo sapiens;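 further: cell viability readout, IC50 reflecting suppression of HCT-15 cell growth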
Description: SANGER: Inhibition of human HCT-15 cell growth in a cell viability assay.

[10] = tested on: SK-MEL-28; assay: cells; type: functional, cell-based; settings: Homo sapiens;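 further: growth inhibition of human SK-MEL-28 cells, read out with a cell viability assay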
Description: SANGER: Inhibition of human SK-MEL-28 cell growth in a cell viability assay.

[11] = tested on: SW-620; assay: cells; type: functional, cell-based; settings: Homo sapiens;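 further: growth inhibition of human SW-620 cells, measured by a cell viability assay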
Description: SANGER: Inhibition of human SW620 cell growth in a cell viability assay.

[12] = tested on: GMS-10; assay: cells; type: functional, cell-based; settings: Homo sapiens;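 further: growth inhibition of GMS-10 cells, read out as cell viability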
Description: SANGER: Inhibition of human GMS-10 cell growth in a cell viability assay.

[13] = tested on: CESS; assay: SANGER: Inhibition of human CESS cell growth in a cell viability assay.; type: functional, cell-based
[14] = tested on: ABC-1; assay: cells; type: functional, cell-based; settings: Homo sapiens;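 further: growth inhibition of human ABC-1 cells, read out by a cell viability assay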
Description: SANGER: Inhibition of human ABC-1 cell growth in a cell viability assay.

[15] = tested on: Panc1005; assay: cells; type: functional, cell-based; settings: Homo sapiens;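 further: growth inhibition of human PANC-10-05 cells, measured by a cell viability assay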
Description: SANGER: Inhibition of human PANC-10-05 cell growth in a cell viability assay.

[16] = tested on: Calu-3; assay: cells; type: functional, cell-based; settings: Homo sapiens;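 further: growth inhibition of human Calu-3 cells, determined with a cell viability assay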
Description: SANGER: Inhibition of human Calu-3 cell growth in a cell viability assay.

[17] = tested on: NCI-H1882; assay: cells; type: functional, cell-based; settings: Homo sapiens;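 further: growth inhibition of the cell line, determined with a viability assay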
Description: SANGER: Inhibition of human NCI-H1882 cell growth in a cell viability assay.

[18] = tested on: HCC1395; assay: cells; type: functional, cell-based; settings: Homo sapiens;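 further: growth inhibition of HCC1395 cells, read out by a cell viability assay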
Description: SANGER: Inhibition of human HCC1395 cell growth in a cell viability assay.

[19] = tested on: OPM-2; assay: cells; type: functional, cell-based; settings: Homo sapiens;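 further: growth of OPM-2 cells measured with a viability assay, IC50 for suppression of proliferation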
Description: SANGER: Inhibition of human OPM-2 cell growth in a cell viability assay.

[20] = tested on: A253 cell line; assay: cells; type: functional, cell-based; settings: Homo sapiens;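 further: growth inhibition of A253 cells, read out with a cell viability assay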
Description: SANGER: Inhibition of human A253 cell growth in a cell viability assay.

[21] = tested on: HuP-T4; assay: cells; type: functional, cell-based; settings: Homo sapiens;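 further: cell viability assay measuring how much HuP-T4 cell growth is inhibited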
Description: SANGER: Inhibition of human HuP-T4 cell growth in a cell viability assay.

[22] = tested on: FaDu; assay: cells; type: functional, cell-based; settings: Homo sapiens;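 further: cell viability readout of growth inhibition in FaDu cells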
Description: SANGER: Inhibition of human FADU cell growth in a cell viability assay.

[23] = tested on: TYK-nu; assay: cells; type: functional, cell-based; settings: Homo sapiens;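 further: growth inhibition of human TYK-nu cells, read out by a cell viability assay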
Description: SANGER: Inhibition of human TYK-nu cell growth in a cell viability assay.

[24] = tested on: U2OS; assay: cells; type: functional, cell-based, U-2-OS; settings: Homo sapiens;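 further: growth inhibition of human U-2-OS cells, determined with a cell viability assay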
Description: SANGER: Inhibition of human U-2-OS cell growth in a cell viability assay.

[25] = tested on: HT1197; assay: cells; type: functional, cell-based, HT-1197; settings: Homo sapiens
Description: SANGER: Inhibition of human HT-1197 cell growth in a cell viability assay.

[26] = tested on: HCC1954; assay: cells; type: functional, cell-based; settings: Homo sapiens;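 further: growth inhibition of human HCC1954 cells, read out with a cell viability assay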
Description: SANGER: Inhibition of human HCC1954 cell growth in a cell viability assay.

[27] = tested on: RCM-1; assay: cells; type: functional, cell-based; settings: Homo sapiens;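 further: growth inhibition of the RCM-1 line, determined with a cell viability readout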
Description: SANGER: Inhibition of human RCM-1 cell growth in a cell viability assay.

[28] = tested on: BFTC-909; assay: cells; type: functional, cell-based; settings: Homo sapiens
Description: SANGER: Inhibition of human BFTC-909 cell growth in a cell viability assay.

[29] = tested on: LU-165; assay: cells; type: functional, cell-based; settings: Homo sapiens
Description: SANGER: Inhibition of human LU-165 cell growth in a cell viability assay.

[30] = tested on: C3A; assay: cells; type: functional, cell-based; settings: Homo sapiens;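 further: growth inhibition of C3A human cells, quantified with a cell viability readout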
Description: SANGER: Inhibition of human C3A cell growth in a cell viability assay.

[31] = tested on: HSC-2; assay: cells; type: functional, cell-based; settings: Homo sapiens;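 further: growth inhibition of human HSC-2 cells, read out by a cell viability assay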
Description: SANGER: Inhibition of human HSC-2 cell growth in a cell viability assay.

[32] = tested on: SNU-C1; assay: cells; type: functional, cell-based; settings: Homo sapiens;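 further: growth inhibition of SNU-C1 human cells, read out by a cell viability assay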
Description: SANGER: Inhibition of human SNU-C1 cell growth in a cell viability assay.

[33] = tested on: MDA-MB-415; assay: cells; type: functional, cell-based; settings: Homo sapiens
[34] = tested on: NCI-H64; assay: cells; type: functional, cell-based; settings: Homo sapiens;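 further: growth inhibition of NCI-H64 cells, read out with a cell viability assay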
Description: SANGER: Inhibition of human NCI-H64 cell growth in a cell viability assay.

[35] = tested on: CHP-126; assay: cells; type: functional, cell-based; settings: Homo sapiens
Description: SANGER: Inhibition of human CHP-126 cell growth in a cell viability assay.

[36] = tested on: CAMA-1; assay: cells; type: functional, cell-based; settings: Homo sapiens;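 further: growth inhibition of CAMA-1 cells, read out with a cell viability assay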
Description: SANGER: Inhibition of human CAMA-1 cell growth in a cell viability assay.

[37] = tested on: KYSE-270; assay: cells; type: functional, cell-based; settings: Homo sapiens;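 further: cell growth inhibition measured with a viability assay in the human KYSE-270 line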
Description: SANGER: Inhibition of human KYSE-270 cell growth in a cell viability assay.

[38] = tested on: A204; assay: cells; type: functional, cell-based; settings: Homo sapiens;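 further: growth inhibition of human A204 cells, read out with a cell viability assay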
Description: SANGER: Inhibition of human A204 cell growth in a cell viability assay.

[39] = tested on: MEL-JUSO; assay: cells; type: functional, cell-based; settings: Homo sapiens;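 further: growth inhibition of human MEL-JUSO cells, read out with a cell viability assay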
Description: SANGER: Inhibition of human MEL-JUSO cell growth in a cell viability assay.

[40] = tested on: NCI-H1963; assay: cells; type: functional, cell-based; settings: Homo sapiens;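 further: cell growth inhibition of the human line, determined with a cell viability assay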
Description: SANGER: Inhibition of human NCI-H1963 cell growth in a cell viability assay.

[41] = tested on: HCC2157; assay: cells; type: functional, cell-based; settings: Homo sapiens;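 further: growth inhibition of the cancer cell line, read out as cell viability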
Description: SANGER: Inhibition of human HCC2157 cell growth in a cell viability assay.

[42] = tested on: SK-MEL3; assay: cells; type: functional, cell-based, SK-MEL-3; settings: Homo sapiens;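 further: growth inhibition of human SK-MEL-3 cells, read out with a cell viability assay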
Description: SANGER: Inhibition of human SK-MEL-3 cell growth in a cell viability assay.

[43] = tested on: Daoy; assay: cells; type: functional, cell-based; settings: Homo sapiens;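 further: daoy cell growth inhibition, read out as cell viability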
Description: SANGER: Inhibition of human Daoy cell growth in a cell viability assay.

[44] = tested on: HSC-4; assay: cells; type: functional, cell-based; settings: Homo sapiens;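 further: growth inhibition of human HSC-4 cells, read out with a cell viability assay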
Description: SANGER: Inhibition of human HSC-4 cell growth in a cell viability assay.

[45] = tested on: NCI-H2141; assay: cells; type: functional, cell-based; settings: Homo sapiens;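 further: growth inhibition of human NCI-H2141 cells, read out with a cell viability assay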
Description: SANGER: Inhibition of human NCI-H2141 cell growth in a cell viability assay.

[46] = tested on: CAPAN-1; assay: cells; type: functional, cell-based; settings: Homo sapiens;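 further: growth suppression of CAPAN-1 cells, read out by a cell viability assay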
Description: SANGER: Inhibition of human CAPAN-1 cell growth in a cell viability assay.

[47] = tested on: MIA PaCa-2; assay: cells; type: functional, cell-based; settings: Homo sapiens;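 further: growth inhibition of MIA PaCa-2 cells, read out with a cell viability assay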
Description: SANGER: Inhibition of human MIA-PaCa-2 cell growth in a cell viability assay.

[48] = tested on: C32; assay: cells; type: functional, cell-based; settings: Homo sapiens;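 further: cell viability assay, with IC50 reflecting inhibition of C32 cell growth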
Description: SANGER: Inhibition of human C32 cell growth in a cell viability assay.

[49] = tested on: MKN-45; assay: cells; type: functional, cell-based; settings: Homo sapiens;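 further: growth inhibition of human MKN-45 cells, measured with a cell viability assay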
Description: SANGER: Inhibition of human MKN45 cell growth in a cell viability assay.

[50] = tested on: RPMI-7951; assay: cells; type: functional, cell-based; settings: Homo sapiens
Description: SANGER: Inhibition of human RPMI-7951 cell growth in a cell viability assay.

[51] = tested on: SCC-3; assay: cells; type: functional, cell-based; settings: Homo sapiens;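 further: cell viability assay measuring inhibition of SCC-3 cell growth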
Description: SANGER: Inhibition of human SCC-3 cell growth in a cell viability assay.

[52] = tested on: NCI-H650; assay: cells; type: functional, cell-based; settings: Homo sapiens;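 further: growth inhibition of NCI-H650 cells, read out by a viability assay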
Description: SANGER: Inhibition of human NCI-H650 cell growth in a cell viability assay.

[53] = tested on: EGI-1; assay: cells; type: functional, cell-based; settings: Homo sapiens;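 further: cell viability readout used to gauge growth inhibition of EGI-1 cells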
Description: SANGER: Inhibition of human EGI-1 cell growth in a cell viability assay.

[54] = tested on: G-361; assay: cells; type: functional, cell-based; settings: Homo sapiens
[55] = tested on: AN3-CA; assay: cells; type: functional, cell-based; settings: Homo sapiens;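 further: growth inhibition of human AN3-CA cells measured by a cell viability assay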
Description: SANGER: Inhibition of human AN3-CA cell growth in a cell viability assay.

[56] = tested on: KYSE-450; assay: cells; type: functional, cell-based; settings: Homo sapiens;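 further: cell growth inhibition measured by a viability assay in human KYSE-450 cells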
Description: SANGER: Inhibition of human KYSE-450 cell growth in a cell viability assay.

[57] = tested on: SW780; assay: cells; type: functional, cell-based; settings: Homo sapiens;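 further: growth inhibition of the cells, read out with a cell viability assay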
Description: SANGER: Inhibition of human SW780 cell growth in a cell viability assay.

[58] = tested on: CHP-212; assay: cells; type: functional, cell-based; settings: Homo sapiens
Description: SANGER: Inhibition of human CHP-212 cell growth in a cell viability assay.

[59] = tested on: SU-DHL-1; assay: SANGER: Inhibition of human SU-DHL-1 cell growth in a cell viability assay.; type: functional, cell-based
[60] = tested on: ARH-77; assay: cells; type: functional, cell-based; settings: Homo sapiens
Description: SANGER: Inhibition of human ARH-77 cell growth in a cell viability assay.

[61] = tested on: ASPC1; assay: cells; type: functional, cell-based; settings: Homo sapiens
Description: SANGER: Inhibition of human AsPC-1 cell growth in a cell viability assay.

[62] = tested on: IGR-1; assay: cells; type: functional, cell-based; settings: Homo sapiens
Description: SANGER: Inhibition of human IGR-1 cell growth in a cell viability assay.

CO[C@@]12[C@H](COC(N)=O)C3=C(C(=O)C(C)=C(N)C3=O)N1C[C@@H]1N[C@@H]12 [MITOMYCIN]
IC50 [1]: < 0.0625 µM | IC50 [2]: 0.149 µM | IC50 [3]: 0.242 µM | IC50 [4]: 6.37 µM | IC50 [5]: < 0.0625 µM | IC50 [6]: 0.775 µM | IC50 [7]: 5.44 µM | IC50 [8]: 2.16 µM | IC50 [9]: 0.465 µM | IC50 [10]: > 16 µM | IC50 [11]: 0.0398 µM | IC50 [12]: 3.84 µM | IC50 [13]: 0.225 µM | IC50 [14]: 0.0612 µM | IC50 [15]: 0.0737 µM | IC50 [16]: 0.321 µM | IC50 [17]: 0.257 µM | IC50 [18]: 1.06 µM | IC50 [19]: 6.35 µM | IC50 [20]: 0.346 µM | IC50 [21]: 0.108 µM | IC50 [22]: 0.128 µM | IC50 [23]: 0.0587 µM | IC50 [24]: > 16 µM | IC50 [25]: 2.02 µM | IC50 [26]: 2.28 µM | IC50 [27]: 0.847 µM | IC50 [28]: 0.0853 µM | IC50 [29]: 0.513 µM | IC50 [30]: 0.194 µM | IC50 [31]: 0.0834 µM | IC50 [32]: 1.91 µM | IC50 [33]: 0.724 µM | IC50 [34]: 1.53 µM | IC50 [35]: 0.0724 µM | IC50 [36]: 0.541 µM | IC50 [37]: 0.103 µM | IC50 [38]: 0.0842 µM | IC50 [39]: 0.0513 µM | IC50 [40]: 0.974 µM | IC50 [41]: 0.727 µM | IC50 [42]: 0.711 µM | IC50 [43]: 0.088 µM | IC50 [44]: 0.434 µM | IC50 [45]: 0.853 µM | IC50 [46]: 0.116 µM | IC50 [47]: 0.275 µM | IC50 [48]: 1.53 µM | IC50 [49]: 0.165 µM | IC50 [50]: 0.168 µM | IC50 [51]: < 0.0625 µM | IC50 [52]: 0.344 µM | IC50 [53]: 2.39 µM | IC50 [54]: 0.124 µM | IC50 [55]: 0.523 µM | IC50 [56]: 0.563 µM | IC50 [57]: > 16 µM | IC50 [58]: < 0.0625 µM | IC50 [59]: < 0.0625 µM | IC50 [60]: 0.243 µM | IC50 [61]: 2.9 µM | IC50 [62]: 0.322 µM
